Experimental data published in PMC10328974, “Molecular mechanism of plasmid-borne resistance to sulfonamide antibiotics” (Nature Communications, 2023).
Values after ≈ are worked out from the molar mass of the structure shown.

target: T1, EcDHPS (Escherichia coli, UniProt P0AC13, F190W/W92F); test: intrinsic tryptophan fluorescence titration; type: binding; settings: not given
T1 construct: gene folP; 1-282 amino acids
T1 sequence (P0AC13 1-282 W92F/F190W): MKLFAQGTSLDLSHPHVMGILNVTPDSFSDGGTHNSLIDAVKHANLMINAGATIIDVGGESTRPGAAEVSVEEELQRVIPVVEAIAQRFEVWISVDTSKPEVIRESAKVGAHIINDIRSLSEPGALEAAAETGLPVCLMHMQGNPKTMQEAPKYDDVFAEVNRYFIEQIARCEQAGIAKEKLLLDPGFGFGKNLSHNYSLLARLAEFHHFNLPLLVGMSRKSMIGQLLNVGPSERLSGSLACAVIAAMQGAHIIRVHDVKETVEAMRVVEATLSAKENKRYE

Q: How did the Kd turn out when `Nc1nc(O)c2c(n1)NCC(COP(=O)(O)OP(=O)(O)O)=N2` [DHPP, 6-hydroxymethyl-7,8-dihydropterin pyrophosphate] was run?
A: Its Kd is 8 µM.

target: T2, EcDHPS (dihydropteroate synthase) (Escherichia coli, UniProt P0AC13); test: biochemical; settings: not given
T2 construct: gene folP

Q: Which Ki does the source give for `Cc1cc(NS(=O)(=O)c2ccc(N)cc2)no1` [SMX, sulfamethoxazole] here?
A: The Ki was 5.15 ± 1.1 µM.

target: T3, Sul3 (Escherichia coli, UniProt C0HMD9, F177G); test: coupled malachite green DHPS activity assay, competition with pABA; type: biochemical; settings: read-out: Sulfa (SMX) / Ki
T3 sequence (C0HMD9 1-242 F177G): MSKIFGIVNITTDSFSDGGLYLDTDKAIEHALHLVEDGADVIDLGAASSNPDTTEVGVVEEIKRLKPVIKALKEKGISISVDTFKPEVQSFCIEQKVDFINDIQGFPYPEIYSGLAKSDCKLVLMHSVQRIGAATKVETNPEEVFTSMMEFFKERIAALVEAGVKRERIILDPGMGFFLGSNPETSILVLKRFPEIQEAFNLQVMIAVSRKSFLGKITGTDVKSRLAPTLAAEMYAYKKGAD

Q: With `Cc1cc(NS(=O)(=O)c2ccc(N)cc2)no1` [SMX, sulfamethoxazole] as the compound, how does the Ki read?
A: Its Ki is 4.16 ± 0.3 µM.

test system: T4, WT E. coli BW25113; test: microbe, parasite or virus in culture; parameters: agar dilution MIC on MHII agar, lowest concentration inhibiting bacterial growth; settings: Escherichia coli, BW25113, 18 h, read-out: MIC (ug/mL)
T4 construct: BW25113
Description: The susceptibilities of various E. coli strains to sulfonamide antibiotics were assessed using the agar dilution method[85] with the exception that MHII agar (Sigma) plates were used, as this agar is specifically formulated to have low levels of thymine and thymidine content, both of which are known to antagonize the action of sulfonamides. Antibiotics used were: sulfamethoxazole (SMX) (Sigma-Aldrich), 50 mg/mL in DMSO; sulfadiazine (SDZ) (Sigma-Aldrich), 100 mg/mL in 1 M NaOH; sulfanilamide (SAA) (Sigma-Aldrich), 50 mg/mL in acetone; sulfisoxazole (SOZ) (TCI America) 50 mg/mL on acetone; sulfathiazole (STZ) (Sigma-Aldrich) 50 mg/mL in acetone: sulfapyridine (SPY) (Sigma-Aldrich) 40 mg/mL in 0.5 M NaOH; sulfamerazine (SMRZ) (AK Scientific), 50 mg/mL in DMSO; sulfamethazine (SMZ) (Alfa Aesar), 50 mg/mL in DMSO; sulfameter (SMT) (Sigma-Aldrich) 100 mg/mL in DMSO; sulfacetamide (SAD) (Sigma-Aldrich) 100 mg/mL in DMSO; sulfaquinoxaline (SQX) (Sigma-Aldrich), 50 mg/mL in DMSO; sulfadimethoxine (SDT) (Sigma-Aldrich), 100 mg/m: in 1 N NaOH. Freshly streaked E. coli colonies were resuspended in sterile 0.9% NaCl solution and the turbidity of the suspension adjusted to that of a McFarland Standard of 0.5 using a Sensititre Nephelometer (Thermo Fisher Scientific) calibrated to a McFarland 0.5 BaSO4 standard. The bacterial suspension was diluted 1:10 into a well of a sterile 96-well microtitre plate by pipetting 10 μL into a well containing 90 μL of sterile saline. A 48-pin replicator with 1.5 mm pins was used to deliver the final inoculum of 1 μL (~10^4 […]) onto MHII agar plates containing various concentrations of either SMX, SDZ, SAA, SOZ STZ, SPY, SMRZ, SMZ, SMT, SAD, SQX, or SDT. […] Inoculated sulfa-agar plates were incubated 37 °C for 18 h and the minimum inhibitory concentration (MIC) was determined to be the lowest concentration of drug that inhibited bacterial growth. In all instances, a drug-free control plate was included to ensure bacterial growth. The ∆folP deletion strain, which is auxotrophic for thymidine

Q: Which MIC does the source give for `Nc1ccc(S(N)(=O)=O)cc1` [SAA, sulfanilamide] here?
A: The MIC was 2050 µg/mL (≈ 11900 µM).

Q: For `CC(=O)NS(=O)(=O)c1ccc(N)cc1` [SAD, sulfacetamide], which MIC is on record?
A: Its MIC is 512 µg/mL (≈ 2390 µM).

Q: Which MIC does the source give for `COc1cc(NS(=O)(=O)c2ccc(N)cc2)nc(OC)n1` [SDT, sulfadimethoxine] here?
A: The MIC was 256 µg/mL (≈ 825 µM).

Q: `Nc1ccc(S(=O)(=O)Nc2ncccn2)cc1` [SDZ, sulfadiazine] was tested. Which MIC did it give?
A: The MIC was 32 µg/mL (≈ 128 µM).

Q: `Cc1ccnc(NS(=O)(=O)c2ccc(N)cc2)n1` [SMRZ, sulfamerazine] was tested. Which MIC did it give?
A: Its MIC is 32 µg/mL (≈ 121 µM).

Q: `COc1cnc(NS(=O)(=O)c2ccc(N)cc2)nc1` [SMT, sulfameter] was tested. Which MIC did it give?
A: Its MIC is 128 µg/mL (≈ 457 µM).

Q: With `Cc1cc(NS(=O)(=O)c2ccc(N)cc2)no1` [SMX, sulfamethoxazole] as the compound, how does the MIC read?
A: The MIC was 16 µg/mL (≈ 63.2 µM).

Q: For `Cc1cc(C)nc(NS(=O)(=O)c2ccc(N)cc2)n1` [SMZ, sulfamethazine], which MIC is on record?
A: Its MIC is 256 µg/mL (≈ 920 µM).

Q: With `Cc1noc(NS(=O)(=O)c2ccc(N)cc2)c1C` [SOZ, sulfisoxazole] as the compound, how does the MIC read?
A: Its MIC is 32 µg/mL (≈ 120 µM).

Q: With `Nc1ccc(S(=O)(=O)Nc2ccccn2)cc1` [SPY, sulfapyridine] as the compound, how does the MIC read?
A: Its MIC is 64 µg/mL (≈ 257 µM).

Q: For `Nc1ccc(S(=O)(=O)Nc2cnc3ccccc3n2)cc1` [SQX, sulfaquinoxaline], which MIC is on record?
A: Its MIC is 512 µg/mL (≈ 1700 µM).

Q: With `Nc1ccc(S(=O)(=O)Nc2nccs2)cc1` [STZ, sulfathiazole] as the compound, how does the MIC read?
A: The MIC was 16 µg/mL (≈ 62.7 µM).
